According to paper PMC8964029 (Pharmaceutical Research, 2022):
Where two headings read alike, the source gives them in different places. Blank lines part the entries; values can stand above or below the molecule they belong to.

Tests used:
[1] = Treatment-related adverse events graded according to CTCAE version 5.0; format: in vivo, human; conditions: nine patients
[2] = format: in vivo, human; conditions: for Cmin (trough concentration) / Cmax / AUC0-24h: steady state, geometric mean (CV%); for AUC0-24h, ratio of geometric mean (95% CI) / Cmax, ratio of geometric mean (95% CI) / Cmin, ratio of geometric mean (95% CI): erlotinib 75 mg QD + ritonavir 200 mg QD versus erlotinib monotherapy 150 mg QD
[3] = healthy volunteers, co-administration of ketoconazole; cited from earlier work
[4] = cited from earlier work
CYP3A4 = conditions: remaining part by CYP1A2; cited from earlier work
[5] = erlotinib 75 mg QD + ritonavir 200 mg QD
[6] = erlotinib monotherapy 150 mg QD
[7] = plasma, erlotinib 75 mg QD + ritonavir 200 mg QD
[8] = plasma, erlotinib monotherapy 150 mg QD
[9] = versus erlotinib monotherapy, result in words

AUC(0-t) ([2]; human, plasma, oral, 150 mg): 29300 ng·h/mL
Cmin (trough concentration) [2, 7]: 1.06 (165%) μg/mL
Cmin (trough concentration) ([2]; plasma, erlotinib 75 mg QD + ritonavir 200 mg QD, listed as erlotinib): 1.06 µg/mL
Cmax [2, 8]: 1.84 (60%) μg/mL
Cmin (trough concentration) [2, 8]: 1.00 (62%) μg/mL
Molecule: C#Cc1cccc(Nc2ncnc3cc(OCCOC)c(OCCOC)cc23)c1 [Erlotinib, erlotinib]
Patients experiencing treatment-related adverse events ([1]; combination of erlotinib with ritonavir): 56%
Diarrhea grade 1 or 2, number of patients [1, 5]: 2
Diarrhea ≥ grade 3, number of patients [1, 5]: 0
Nausea grade 1 or 2, number of patients [1, 5]: 2
Nausea ≥ grade 3, number of patients [1, 5]: 0
Number of patients experiencing any AE [1, 5]: 5
Skin rash grade 1 or 2, number of patients [1, 5]: 1
Skin rash ≥ grade 3, number of patients [1, 5]: 0
Diarrhea grade 1 or 2, number of patients [1, 6]: 2
Diarrhea ≥ grade 3, number of patients [1, 6]: 0
Nausea grade 1 or 2, number of patients [1, 6]: 0
Nausea ≥ grade 3, number of patients [1, 6]: 0
Number of patients experiencing any AE [1, 6]: 4
Skin rash grade 1 or 2, number of patients [1, 6]: 3
Skin rash ≥ grade 3, number of patients [1, 6]: 0
Patients with a treatment-related adverse event ([1]; monotherapy erlotinib): 44%
Increase of AUC0-∞ of erlotinib by ketoconazole [3]: approximately a twofold
Increase of Cmax of erlotinib by ketoconazole [3]: approximately a twofold
elimination half-life [4]: approximately 36 h
Share of erlotinib metabolized by CYP3A4 (CYP3A4): approximately 70%

AUC0-24h, ratio of geometric mean (95% CI) [2]: 0.53 (0.34 – 0.83)
Cmax, ratio of geometric mean (95% CI) [2]: 0.48 (0.31 – 0.76)
Cmin, ratio of geometric mean (95% CI) [2]: 0.59 (0.37 – 0.94)
Cmax [2, 7]: 43.7 (134%) ng/mL
Cmin (trough concentration) [2, 7]: 29.4 (263%) ng/mL
AUC0-24h ([2]; plasma, erlotinib 75 mg QD + ritonavir 200 mg QD, nine patients): 0.823 (174%) μg*h/mL
Cmax [2, 8]: 90.0 (107%) ng/mL
Cmin (trough concentration) [2, 8]: 49.5 (152%) ng/mL
AUC0-24h ([2]; plasma, erlotinib monotherapy 150 mg QD, nine patients): 1.55 (120%) μg*h/mL
Change in AUC0-24h following the combination of erlotinib and ritonavir [2, 9]: statistically significant decrease
Change in Cmax following the combination of erlotinib and ritonavir [2, 9]: statistically significant decrease
Molecule: C#Cc1cccc(Nc2ncnc3cc(OCCO)c(OCCOC)cc23)c1 [OSI-413]

Cmin (trough concentration) [2, 7]: 0.243 (129%) μg/mL
Molecule: CC(C)c1nc(CN(C)C(=O)N[C@H](C(=O)N[C@@H](Cc2ccccc2)C[C@H](O)[C@H](Cc2ccccc2)NC(=O)OCc2cncs2)C(C)C)cs1 [Ritonavir, ritonavir]

AUC0-24h, ratio of geometric mean (95% CI) [2]: 0.31 (0.15 – 0.62)
Cmax, ratio of geometric mean (95% CI) [2]: 0.28 (0.13 – 0.57)
Cmin, ratio of geometric mean (95% CI) [2]: 0.41 (0.22 – 0.76)
AUC0-24h [2, 7]: 118 (351%) ng*h/mL
Cmax [2, 7]: 7.24 (230%) ng/mL
Cmin (trough concentration) [2, 7]: 4.34 (443%) ng/mL
AUC0-24h [2, 8]: 380 (144%) ng*h/mL
Cmax [2, 8]: 26.1 (141%) ng/mL
Cmin (trough concentration) [2, 8]: 10.5 (162%) ng/mL
Change in AUC0-24h following the combination of erlotinib and ritonavir [2, 9]: statistically significant decrease
Change in Cmax following the combination of erlotinib and ritonavir [2, 9]: statistically significant decrease
Change in Cmin following the combination of erlotinib and ritonavir [2, 9]: statistically significant decrease
Molecule: OSI-420
